# Source: paper PMC11705955, “Lack of activity of HIV-1 integrase strand-transfer inhibitors on recombinase activating gene (RAG) activity at clinically relevant concentrations” (Microbiology Spectrum, 2024)
# pIC50: −log10 of the molar value. “Also recorded” adds a separate entry of the source. Read-outs that look alike come from different tables or passages of the source.
# Assays:
# [1] = 5-day cytotoxicity assay with Cell Titer Glo readout, MT4; format: cell-based; conditions: human
# Description: (§1) Supplemental Table S2. CC50 values for INSTIs in 5- day cytotoxicity as says with Cell Titer
# (§2) Expi293F GALPC3 GALHEP HUH7 MRC5 MT4 PBMC PBMC
# (§3) Kidney Prostate Hepatoma Hepatoma Lung T-cell line Primary Primary
# (§4) (embryonic) cancer cell cell line cell line fibroblast cells
# [2] = tested on: murine mCherry-core RAG1 / mCherry-RAG2 V(D)J recombination in Expi293F cells; experiment: Extrachromosomal cell-based V(D)J recombination assay (GFP reporter, flow cytometry); conditions: for Effect on percentage of GFP-positive cells / RAG recombination: across concentrations tested, 48 h post-transfection
# Description: To further evaluate the effect of HIV-1 integrase inhibitors on RAG activity in a cellular context, we optimized a novel extrachromosomal cell-based V(D)J recombination assay, enabling assessment of multiple compounds in a dose–response manner by flow cytometry ([33]). The schematic of FL murine RAG1 and RAG2 proteins, including the active site residues (DDE motif) in RAG1 and catalytically essential core regions of each protein, are shown in Fig. 5A. The cell-based assay used vectors that encode for the core RAG1 protein (instead of the FL version) and FL murine RAG2 expressed as C-terminal fusions to mCherry, termed mCherry-core RAG1 and mCherry-RAG2. The core regions of each RAG protein are sufficient to catalyze V(D)J recombination, whereas the non-core regions function to regulate the recombination reaction ([13]). […] The consensus RSS used in this assay contains a conserved heptamer and nonamer separated by 12 or 23 non-conserved bp (12RSS and 23RSS) (Fig. 5B). A general schematic of the design for the plasmid substrate with the 12RSS and 23RSS orientations before and after V(D)J recombination is presented in Fig. 5C. More specifically, the plasmid substrate pMAXgfp-INV was designed with a 12RSS and a 23RSS flanking each side of the Pontellina plumata green fluorescent protein gene (termed maxGFP), where the gene is in an inverted orientation relative to the CMV promoter (Fig. 5D). The RSSs are positioned in a co-linear orientation, such that successful V(D)J recombination activity will result in inversion of the maxGFP gene to place it in a transcriptionally active orientation with resulting expression of GFP. Detection of GFP-expressing cells using microscopy and flow cytometry was used as a direct readout of V(D)J recombination activity.
# For the recombination assay, the pMAXgfp-INV plasmid substrate and RAG1/RAG2 expression vectors (mCherry-core RAG1 and mCherry-RAG2) were transiently transfected into Expi293 cells in the absence or presence of integrase inhibitors and were assessed via microscopy and flow cytometry. The fluorescence signal from the mCherry-tag is used to assess transfection efficiency of RAG1/RAG2 vectors (Fig. 6A). We observed that transfection of the pMAXgfp-INV substrate into Expi293 cells with RAG1/RAG2 expression vectors yielded robust GFP expression 48 h post-transfection in the cells treated with vehicle control (0.1% dimethyl sulfoxide [DMSO]) (Fig. 6A). […] NU7026 inhibits double-strand break repair, which is a necessary step after DNA cleavage by RAG enzymes, and thus serves as an indirect inhibitor of RAG activity ([35]).
# To test the effect of HIV-1 integrase inhibitors on V(D)J recombination activity, we optimized an extrachromosomal cell-based V(D)J recombination assay ([33]). Briefly, Expi293 cells were plated at 1 × 10^6 cells/mL in six-well plates in Gibco Expi293 expression media the day before transfection. The next day, the Expi293 cells were co-transfected with three separate vectors, pMAXgfp-INV plasmid substrate, mCherry-core RAG1, and mCherry-RAG2 expression vectors with a 4:1 transfection reagent:DNA ratio using ExpiFectamine 293 transfection reagent (Gibco). Vehicle or candidate inhibitors were added to cell samples 2 h after transfection, with six different concentrations of each inhibitor added to separate wells. Fivefold dilutions for each inhibitor starting from 10 µM were tested.
# Experiments were performed with six separate inhibitors in at least three independent experiments. Two negative control conditions for recombination activity were performed in parallel and include (i) transfections in the presence of NU7026 at 30 and 50 µM (Abcam) and (ii) using a modified pMAXgfp-INV substrate containing two 12RSSs (instead of one 12RSS and one 23RSS) that is inefficiently recombined by the RAG proteins. Vehicle control (0.1% DMSO) served as the positive control for GFP expression. The fluorescence signal from the mCherry tag was used to assess transfection efficiency. […]
# [3] = 5-day cytotoxicity assay with Cell Titer Glo readout, MRC5; format: cell-based; conditions: human
# Description: as §1, §2, §3, §4
# [4] = 5-day cytotoxicity assay with Cell Titer Glo readout, HUH7; format: cell-based; conditions: human
# Description: as §1, §2, §3, §4
# [5] = tested on: PBMC primary cells; experiment: 5-day cytotoxicity assay with Cell Titer Glo readout, PBMC; format: cell-based
# Description: as §1, §2, §3, §4
# [6] = as above; format: cell-based
# Description: as §1, §2, §3, §4
# [7] = 5-day cytotoxicity assay with Cell Titer Glo readout, GALPC3; format: cell-based; conditions: human
# Description: as §1, §2, §3, §4
# [8] = tested on: Expi293F cells; experiment: Cell viability (CellTiterGlo) in the cellular RAG assay; format: cell-based, human; conditions: 48 hours after transfection, up to 10 µM (p8 up to 50 µM)
# Description: After 48-h incubation at 37°C in a humidified 8% CO2 incubator, 100 µL of cell suspension was transferred to 96-well black assay plates (Corning). Each well of the assay plates then received 100 µL CellTiterGlo reagent and the resulting luminescence signal was read using the PHERAstar FSX plate reader (BMG Labtech, Germany).
# Supplemental Figure S4. Cytotoxicity analysis of INSTIs in the cellular RAG assay using […]
# Concentration (μM) Concentration (μM) Concentration (μM)
# Expi293F cells were co-t ransfected with pMAXgfp- INV plasmid substrate, mCherry- core RAG1 , mCherry RAG2, with INSTIs added 2 hours after transfection. Six different concentrations of each […]
# added to separate wells. % live cells normalized to 0.1% DMSO data are presented for INSTIs tested in cell viability (Cell- Titer Glo) assay 48 hours after transfection. BIC (n=5), CAB (n=3), concentrations tested. An ordinary one-way ANOVA with Dunnett's multiple comparisons test unmarked datapoints = not significant. […]
# was used to compare % GFP levels to the DMSO control, *P ≤ 0.05, **P ≤ 0.01, ***P ≤ 0.001, (also on this page, place not known: live normalized 0.001 % live cells normalized DMSO 0.001 10 % live cells normalized DMSO 0.001 10 % live cells normalized to DMSO 0.001 10 % live cells normalized to DMSO E xpi293F cells co-transfected pMAXgfp-INV mCherry-core RAG1, 5-fold 10 to % live cells normalized to DMSO (n=3) one -way to % to DMSO)
# [9] = 5-day cytotoxicity assay with Cell Titer Glo readout, Expi293F; format: cell-based; conditions: human
# Description: as §1, §2, §3, §4
# [10] = 5-day cytotoxicity assay with Cell Titer Glo readout, GALHEPG2; format: cell-based; conditions: human
# Description: as §1, §2, §3, §4
SMILES,CC50 at 5 day [1] [µM],"pIC50 ([2]; Mus musculus, Expi293F, compound added 2 h after transfection, read 48 h post-transfection, serum-free media, read-out: IC50 in cellular V(D)J recombination assay (% GFP-positive cells))",CC50 at 5 day [3] [µM],CC50 at 5 day [4] [µM],CC50 ([5]; 5 day) [µM],CC50 at 5 day ([6]; CC50) [µM],CC50 at 5 day [7] [µM],"Cellular toxicity, % live cells normalized to 0.1% DMSO [8]",CC50 at 5 day [9] [µM],CC50 at 5 day [10] [µM],Effect on percentage of GFP-positive cells / RAG recombination [2],"CC50 at 5 day ([1]; MT4, 5-day, Cell Titer Glo, read-out: CC50) [µM]","CC50 at 5 day ([3]; MRC5, 5-day, Cell Titer Glo, read-out: CC50) [µM]","CC50 at 5 day ([4]; HUH7, 5-day, Cell Titer Glo, read-out: CC50) [µM]","CC50 ([5]; PBMC Lot2, 5-day, Cell Titer Glo, read-out: CC50) [µM]","CC50 at 5 day ([6]; PBMC Lot1, 5-day, Cell Titer Glo, read-out: CC50) [µM]","CC50 at 5 day ([7]; GALPC3, 5-day, Cell Titer Glo, read-out: CC50) [µM]","CC50 at 5 day ([9]; Expi293F, 5-day, Cell Titer Glo, read-out: CC50) [µM]","CC50 at 5 day ([10]; GALHEPG2, 5-day, Cell Titer Glo, read-out: CC50) [µM]"
"O=C(/C=C(\O)c1nnn[nH]1)c1c[nH]c2ccc(Cl)cc12 [p8, 5-CITEP]",> 50,< 4.30,> 44.4,> 44.4,> 44.3,> 44.3,> 44.4,minimal effects on cellular toxicity,> 100,> 44.4,–,–,–,–,–,–,–,–,–
"C[C@H]1CO[C@@H]2Cn3cc(C(=O)NCc4ccc(F)cc4F)c(=O)c(O)c3C(=O)N12 [CAB, cabotegravir]",5.25,–,28.1,21.5,29.5,30,> 44.4,minimal effects on cellular toxicity,> 100,37.9,did not observe a reduction in percentage of GFP-positive cells; also recorded: do not show inhibitory activity,–,–,–,–,–,–,–,–
"O=C(NCc1c(F)cc(F)cc1F)c1cn2c(c(O)c1=O)C(=O)N1[C@H]3CC[C@H](C3)O[C@@H]1C2 [BIC, bictegravir]",2.59,–,> 44.4,38,24.2,28.5,> 44.4,minimal effects on cellular toxicity,46,17.4,did not observe a reduction in percentage of GFP-positive cells; also recorded: do not show inhibitory activity,–,–,–,–,–,–,–,–
"C[C@@H]1CCO[C@H]2Cn3cc(C(=O)NCc4ccc(F)cc4F)c(=O)c(O)c3C(=O)N12 [DTG, dolutegravir]",7.53,–,38.2,28.7,17.9,28.4,> 44.4,minimal effects on cellular toxicity,53.6,> 44.4,did not observe a reduction in percentage of GFP-positive cells; also recorded: do not show inhibitory activity,–,–,–,–,–,–,–,–
"Cc1nnc(C(=O)NC(C)(C)c2nc(C(=O)NCc3ccc(F)cc3)c(O)c(=O)n2C)o1 [RAL, raltegravir]",–,–,–,–,–,–,–,minimal effects on cellular toxicity,–,–,did not observe a reduction in percentage of GFP-positive cells; also recorded: do not show inhibitory activity,> 50,> 44.4,> 44.4,> 44.3,> 44.3,> 44.4,> 100,> 44.4
"COc1cc2c(cc1Cc1cccc(Cl)c1F)c(=O)c(C(=O)O)cn2[C@H](CO)C(C)C [EVG, elvitegravir]",3.75,–,14.3,20.4,14.1,14.6,20.8,minimal effects on cellular toxicity,32.5,9.02,do not show inhibitory activity,–,–,–,–,–,–,–,–
